Test results published in patent EP0501354B1, “Anticataract composition” (Senju Pharmaceutical Co., Ltd., priority 1991, dated 1992).

Columns and labels:
[1] = system: streptozotocin-induced diabetic cataract; test: Inhibitory effect on streptozotocin-induced diabetic cataract (slit lamp, rating scale of Sasaki et al.); assay type: in vivo, male SD rats; conditions: for time at which cataract scores were reached compared with control group / degree of progression of cataract, time series analysis of variance vs control group: 100 mg/kg/day intraperitoneally once a day for 56 days; for time at which cataract scores were reached compared with control group: rating scale of Sasaki et al. 0-6; for degree of progression of cataract, time series analysis of variance vs control group: scored every seven days; for vacuolation rate (of the eyes): after 7 days, 100 mg/kg/day intraperitoneally once a day, STZ 70 mg/kg i.v. rats, control group 45%
Procedure: Streptozotocin (hereafter abbreviated as STZ), 70 mg/kg, was administered intravenously to 28 male SD rats aged 4 weeks to induce diabetes. Thereafter, the animals were divided into three groups (two groups consisting of 10 animals each and a group consisting of 8 animals). […] The lens was examined with a slit lamp under mydriasis with Mydrin-P before the beginning of drug administration and every seven days after initiation of administration. The degree of cataract was scored according to the rating scale of Sasaki et al. (Ophthalmic Res. 15: 185-190, 1983) and the anticataract activity of each drug was tested by time series analysis of variance. Body weights were taken on each observation day. […] Rating scale of Sasaki et al. 0: No abnormality. 1: Vacuoles are present in the equator of the lens. 2: Vacuoles spread toward the anterior pole beneath the cortex of the anterior lens capsule. 3: Vacuole begin to merge. 4: The deep layer of the cortex of the anterior lens capsule is cloudy. 5: The central part of the lens is milk white in color. 6: Virtually the entire lens is milk white in color (mature cataract).

[2] = Body weight during treatment of streptozotocin-diabetic rats; assay type: in vivo, male SD rats; conditions: 100 mg/kg/day intraperitoneally once a day for 56 days; STZ-diabetic rats
Procedure: Streptozotocin (hereafter abbreviated as STZ), 70 mg/kg, was administered intravenously to 28 male SD rats aged 4 weeks to induce diabetes. Thereafter, the animals were divided into three groups (two groups consisting of 10 animals each and a group consisting of 8 animals). One group received 2% glutathione (dissolved in physiological saline, hereafter referred to as GSH group), another group S-(diethyl α,β-carboxyethyl)glutathione sodium (dissolved in physiological saline, hereafter referred to as DCE-EtGS group), and a third group physiological saline (hereafter referred to as control group), all intraperitoneally in a volume of 0.5 ml/100 g body weight once a day for 56 days (100 mg/kg/day as active substance). The lens was examined with a slit lamp under mydriasis with Mydrin-P before the beginning of drug administration and every seven days after initiation of administration. The degree of cataract was scored according to the rating scale of Sasaki et al. (Ophthalmic Res. 15: 185-190, 1983) and the anticataract activity of each drug was tested by time series analysis of variance. Body weights were taken on each observation day. Incidentally, blood glucose levels were determined 5 days after administration of STZ and the study was continued only after confirmation of hyperglycemia.

In the case of `CCOC(=O)CC(SCC(NC(=O)CCC(N)C(=O)O)C(=O)NCC(=O)O)C(=O)OCC` (stereo not drawn) [DCE-EtGS, S-(Diethyl α,β-dicarboxyethyl)glutathione sodium], the “time at which cataract scores were reached compared with control group” value [1] is reported as “scores of 2, 4, 5 and 6 being reached later than in the control group”, the “degree of progression of cataract, time series analysis of variance vs control group” value [1] is reported as “significant delay of progression” and the “vacuolation rate (of the eyes)” value [1] is reported as 25%. For the same compound, the “Body weight gain vs control group” value [2] was “significantly greater”.

With `N[C@@H](CCC(=O)N[C@@H](CS)C(=O)NCC(=O)O)C(=O)O` [GSH, glutathione, reference compound] the “time at which cataract scores were reached compared with control group” value [1] was “scores of 5 and 6 were reached later than in the control group”, the “degree of progression of cataract, time series analysis of variance vs control group” value [1] was “no significant difference from the control group” and the “vacuolation rate (of the eyes)” value [1] was 56.3%.
